Measured values reported in EP1568373A2, “Inducing cellular immune responses to HER2/neu using peptide and nucleic acid compositions” (priority 1999, dated 2001).
Where no end group is shown, it is not given here.

Columns and labels:
DRB1*0301 (DR3) = DRB1*0301 (DR3) (Homo sapiens, UniProt P01903+P01911, A100K/A102G/A103R/A169T/F55Y/I96L/K41T/L162R/M171V/P40S/Q125H/Q178H/Q39Y/R42S/S66N/T106N/T262R/W38E/Y61H); assay: HLA class II binding assay, purified HLA molecules; details: Table XXX
CD8+ T-cells = assay: Primary in vitro CTL induction with peptide-pulsed DC, 51Cr release and in situ IFNγ assays; format: cell-based, human
Protocol: The colon adenocarcinoma cell lines SW403 and HT-29 were obtained from the American Type Culture Collection (ATCC) (Rockville, MD). The cell lines that were obtained from ATCC were maintained under the culture conditions recommended by the supplier. […] The colon cancer cells were treated with 100U/ml IFNγ (Genzyme) for 48 hours at 37°C before use as targets in the ^51Cr release and in situ IFNγ assays.
The monocytes were purified by plating 10 x 10^6 PBMC/well in a 6-well plate. After 2 hours at 37°C, the non-adherent cells were removed by gently shaking the plates and aspirating the supernatants. The wells were washed a total of three times with 3 ml RPMI to remove most of the non-adherent and loosely adherent cells. Three ml of complete medium containing 50 ng/ml of GM-CSF and 1,000 U/ml of IL 4 were then added to each well. […]
Induction of CTL with DC and Peptide: CD8+ T-cells were isolated by positive selection with Dynal immunomagnetic beads (Dynabeads® M-450) and the detacha-bead® reagent. […] The DC were collected and centrifuged at 1300 rpm for 5-7 minutes, washed once with PBS with 1% BSA, counted and pulsed with 40µg/ml of peptide at a cell concentration of 1-2×10^6/ml in the presence of 3µg/ml ß2- microglobulin for 4 hours at 20°C. The DC were then irradiated (4,200 rads), washed 1 time with medium and counted again. […]

DRB1*0301 (DR3), sequence (P01903 26-254 limits assumed, other chains not shown): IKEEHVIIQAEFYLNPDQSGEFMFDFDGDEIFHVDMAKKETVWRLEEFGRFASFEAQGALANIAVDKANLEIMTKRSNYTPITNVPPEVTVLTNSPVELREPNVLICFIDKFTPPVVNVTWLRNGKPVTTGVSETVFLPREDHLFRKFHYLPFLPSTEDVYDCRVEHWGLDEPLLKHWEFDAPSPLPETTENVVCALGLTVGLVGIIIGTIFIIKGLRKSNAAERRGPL

| IC50 (DRB1*0301 (DR3)) [µM] | Molecule | recognition of wild-type peptide and of tumor targets that endogenously express HER2/neu by the induced CTLs (CD8+ T-cells; expanded positive cultures) | induction of peptide-specific CTL response (CD8+ T-cells; normal donors, peptide-pulsed targets) |
| --- | --- | --- | --- |
| 4.22 | CSCC[C@H](NC(=O)[C@H](CCCNC(=N)N)NC(=O)[C@H](CO)NC(=O)[C@H](Cc1ccccc1)NC(=O)[C@H](CCC(=O)O)NC(=O)[C@H](CO)NC(=O)[C@@H](NC(=O)[C@H](CC(C)C)NC(=O)[C@H](CCC(=O)O)NC(=O)[C@H](CCCNC(=N)N)NC(=O)[C@@H](N)Cc1ccccc1)C(C)C)C(=O)N[C@@H](C)C(=O)N[C@@H](CCCNC(=N)N)C(=O)N[C@@H](CC(=O)O)C(=O)N1CCC[C@H]1C(=O)O [Her2/neu.969] | – | – |
| – | CC(C)C[C@H](NC(=O)[C@H](CO)NC(=O)CNC(=O)[C@H](Cc1ccccc1)NC(=O)[C@@H](NC(=O)[C@@H](N)CCCCN)C(C)C)C(=O)N[C@@H](C)C(=O)N[C@@H](Cc1ccccc1)C(=O)N[C@H](C(=O)O)C(C)C [V2V9] | also recognized the target tumor cells | induced peptide-specific CTLs |
| 5.77 | SLSFLQDIQEVQGYV [Her2/neu.70] | – | – |
